“Also recorded” adds a separate entry of the source.
Experiments:
[1] = system: human primary hepatocytes; test: NAD+ content in human primary hepatocytes by LCMS/MS; format: cell-based; settings: tested at 0.5 μM and 5 μM; compound replaced every 24 hrs
Description: Primary hepatocytes are treated with different concentrations of a compound of Formula (I), Formula (Ia), Formula (Ib), Formula (II), or Formula (III), or a pharmaceutically acceptable salt thereof, or MEHP (control) after seeding. The compound is replaced every 24 hours, and then cells are directly harvested and lysed to detect NAD^+ content through LC MS/MS (liquid chromatography mass spectrometry/mass spectroscopy).
The NAD^+ concentration or content was determined in human primary hepatocytes treated with Compound 4. Vehicle (NT) was used as a control.
At least three experiments were run treating primary hepatocytes with different concentrations of Compound 4 (0.5 μM and 5 μM) after 48 hrs from seeding. Compound 4 was replaced every 24 hrs, and then cells were directly harvested and lysed with ACN/H2O (ratio 5:1). LCMS/MS was used to detect and measure NAD^+ concentration/content. […] (FIG. 1)
The NAD^+ concentration or content was determined in human primary hepatocytes treated with Compound 1 and MEHP, a known ACMSD inhibitor. MEHP was used as a control.
At least three experiments were run treating primary hepatocytes with different concentrations of Compound 1 (0.5 μM, 5 μM, and 50 μM) after 48 hrs from seeding. Compound 1 was replaced every 24 hrs, and then cells were directly harvested and lysed with ACN/H2O (ratio 5:1). […]

[2] = system: HePG2 cells; test: Cytotoxicity in HePG2 cells (LDH release, ATP level); format: cell-based; settings: 10 nM to 300 μM, 4 hrs
Description: (§1) HePG2 and AML-12 cells are seeded and a dose-response of the compound is performed at various concentrations. Cells are stimulated and the supernatant is used to perform LDH release as a measure of necrosis while the cells are lysed to detect ATP levels for determining cell viability.
(§2) Cytotoxicity: 20000 HePG2 and AML-12 cells were seeded in 96 well plate (Viewplate PerkinElmer). Dose-response of the compound in Table 2 was performed using HP D300 digital dispenser, ranging from 10 nM to 300 μM with constant DMSO 1% in medium. Cells were stimulated for 4 hrs at 37° C.; the supernatant was used to perform LDH release (Cytotox-one, Promega) as a measure of necrosis while the cells were lysed to detect ATP level for determining cell viability (Celltiter-glo, Promega) according to manufacturer's instructions.

[3] = system: AML-12 cells; test: Cytotoxicity in AML-12 cells (LDH release, ATP level); format: cell-based, mouse; settings: 10 nM to 300 μM, 4 hrs
Description: as §1, §2

[4] = system: Hepa-1.6 cells; test: RT-qPCR analysis of SIRT1-regulated genes in Hepa-1.6 cells; format: cell-based; settings: 24 hrs
Description: (§3) Cells (AML-12, Hepa-1.6, HEK-293, primary human and murine hepatocytes) are treated with different concentrations of a compound of Formula (I), Formula (Ia), Formula (Ib), Formula (II), or Formula (III), or a pharmaceutically acceptable salt thereof and the gene expression of ACMSD, Pgc1a, Sod1, and Sod2 (MnSOD) is determined using RT-qPCR. Total RNA is extracted from cells and the extracted RNA is treated with DNase and used for reverse transcription (RT).
(§4) Gene expression of ACMSD and genes known to be regulated by SIRT1, (an enzyme that is strictly NAD^+ dependent) such as Pgc1a, Sod1, Sod2 (MnSOD), were analysed in AML-12 cells, Hepa-1.6 cells and primary murine hepatocytes treated with Compound 1 or 17.
(§5) Cells (AML-12, Hepa-1.6, HEK-293, primary human and murine hepatocytes) were treated with different concentrations of Compound 1 or Compound 17. Total RNA was extracted from cells using TRIzol (Invitrogen) according to the manufacturer's instructions. The RNA was treated with DNase, and 2 μg of RNA was used for reverse transcription (RT). 50× diluted cDNA was used for RT-quantitative PCR (RT-qPCR) reactions. The RT-qPCR reactions were performed using the Light-Cycler system (Roche Applied Science) and a qPCR Supermix (QIAGEN) with the indicated primers. The average of at least three technical repeats was used for each biological data point.

[5] = system: FoxO1 phosphorylation at Ser256; test: FoxO1 phosphorylation levels in AML-12 cells (western blot); format: cell-based, mouse; settings: 24 hours, increasing dose
Description: AML-12 cells are treated with different concentrations of a compound of Formula (I), Formula (Ia), Formula (Ib), Formula (II), or Formula (III), or a pharmaceutically acceptable salt thereof. Cells are then lysed, and analyzed by SDS-PAGE/western blot. Blocking and antibody incubations are then done and each protein present is detected with its specific antibody.
AML-12 cells were treated with different concentrations of Compound 1 or Compound 17 for 24 hours. Cells were then lysed in lysis buffer (50 mM Tris, 150 mM KCl, EDTA 1 mM, NP40 1%) containing protease and phosphatase inhibitors, and analyzed by SDS-PAGE/western blot. Blocking and antibody incubations were done in 5% milk. Each protein present was detected with its specific antibody. Tubulin antibody was obtained from Sigma Inc, FoxO1 and phopho-FoxO1 (Ser256) antibodies were obtained from Cell Signaling. Antibody detection reactions were developed by enhanced chemiluminescence (Advansta, Calif., USA) using x-ray films.

[6] = biological target: ACMSD-1 (Homo sapiens (Human), UniProt Q8TDX5); test: ACMSD-1 modulation in HEK293T cells transiently expressing ACMSD; format: cell-based; settings: about 50 nM to about 5 uM; stimulated 48 hrs to 72 hrs
ACMSD-1, sequence (Q8TDX5 whole entry): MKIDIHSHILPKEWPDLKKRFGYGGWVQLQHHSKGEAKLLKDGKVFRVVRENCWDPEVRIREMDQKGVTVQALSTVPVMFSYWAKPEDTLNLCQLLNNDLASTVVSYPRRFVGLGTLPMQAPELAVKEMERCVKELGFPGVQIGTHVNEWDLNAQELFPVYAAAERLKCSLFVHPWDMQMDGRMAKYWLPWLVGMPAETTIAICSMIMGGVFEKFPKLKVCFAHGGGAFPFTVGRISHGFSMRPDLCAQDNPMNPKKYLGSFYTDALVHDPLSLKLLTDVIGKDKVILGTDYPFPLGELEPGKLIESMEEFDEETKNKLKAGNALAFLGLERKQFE
Description: HEK293T cells are seeded and transfected to transiently express ACMSD. The cells are then stimulated with different concentrations of Compound 1, and then lysed to measure the ACMSD activity in a spectrophotometrical in vitro assay. The amount of the whole protein content in cell lysates is detected by Bradford analysis and used to get the specificity activity of the enzyme normalized in all samples.
HEK293T cells (ATCC) were seeded in six-well plates and transfected using Fugene HD to express transiently ACMSD. 24 hrs post transfection, the cells were stimulated for 48 hrs to 72 hrs with different concentrations of Compound 1 and then lysed to measure the ACMSD activity, by measuring the conversion of 30H-Anthranilic Acid into product (i.e. α-amino-beta-carboxymuconate-ε-semialdehyde, ACMS) in a spectrophotometrical in vitro assay. The amount of the whole protein content in cell lysates was detected by Bradford analysis. This value was used to get the specificity activity of the enzyme normalized in all samples (mU/ml or ΔE/Δt/mg of total protein).
Having determined the optimum stimulation time and transfection protocol cells were stimulated with different concentrations of Compound 1 (about 50 nM to about 5 uM).

[7] = system: SOD2 activity in primary murine hepatocytes; test: Modulation of SOD2 activity in murine primary hepatocytes; format: cell-based, mouse; settings: for SOD2 activity: primary murine hepatocytes, 24 hours
Description: (§6) Primary hepatocytes or AML-12 cells are lysed and total protein concentration is determined using the Bradford assay. SOD2 activity is determined at indicated times after treatment with a compound of Formula (I), Formula (Ia), Formula (Ib), Formula (II), or Formula (III), or a pharmaceutically acceptable salt thereof, using a SOD Assay Kit. Absorbance is determined and results are expressed in U/ml/mg of protein according to the standard curve and measured protein concentration.
Primary hepatocytes were prepared from 8-12-week-old C57BL/6J mice by collagenase perfusion method. Mouse livers were perfused with Hank's balanced salt solution (HBSS, KCl, 5.4 mM; KH2PO4, 0.45 mM; NaCl, 138 mM; NaHCO3, 4.2 mM; Na2HPO4, 0.34 mM; glucose, 5.5 mM; […]; EGTA, 50 mM; CaCl2, 50 mM; pH 7.4). Livers were then washed at a rate of 5 ml/min through the portal vein. After washing, livers were perfused with collagenase (0.025%) solution. Cell viability was assessed by the trypan blue method. Isolated primary hepatocytes were plated with DMEM medium (Gibco) including 10% FCS, 10 units per ml penicillin and HEPES for buffering. The cells were maintained in culture at 37° C. in a humidified atmosphere of 5% CO2/95% air. After 6-8 hrs of attachment, this medium was replaced with media containing different concentrations of an ACMSD inhibitor (i.e., Compound 1 or Compound 17) or with the corresponding concentration of DMSO (as a control). […]
(§7) Primary hepatocytes or AML-12 cells were then lysed in a 20 mM HEPES buffer (Gibco), pH 7.2, containing 1 mM EGTA (Sigma), 210 mM mannitol (Sigma), and 70 mM sucrose (AMRESCO). Total protein concentration was determined using the Bradford assay (BioRad). SOD-2 activity was determined at indicated times after ACMSD inhibitor treatment by the SOD Assay Kit (Cayman Chemical) according to the manufacturer's instructions. […] Absorbance was determined with a Victor X4 multi-label plate reader (Perkin-Elmer) at 450 nm. Results are expressed in U/ml/mg of protein according to the standard curve and measured protein concentration.

[8] = system: AML-12 cells; test: RT-qPCR analysis of SIRT1-regulated genes in AML-12 cells; format: cell-based, mouse; settings: 24 hrs
Description: as §3, §4, §5

[9] = system: SOD2 activity in AML-12 cells; test: Modulation of SOD2 activity in AML-12 cells; format: cell-based, mouse; settings: 24 hours
Description: as §6, with “concentration. […]” for “concentration.”
as §7

[10] = system: MDCK cells; test: Modulation of cisplatin-induced caspase 3/7 activity in MDCK cells; format: cell-based; settings: for EC50: Canis lupus familiaris, MDCK
Description: MDCK cells are cultured in base medium to a final concentration of 10%. Cells are plated into 96 wells and 24 hours after cell plating the medium is changed with fresh medium supplemented with 1% FBS. Cisplatin is then used to induce cell injury. Different concentrations of Formula (I), Formula (Ia), Formula (Ib), Formula (II), or Formula (III), or a pharmaceutically acceptable salt thereof (in DMSO) are added in combination with cisplatin or prior to adding cisplatin. Caspase 3/7 activity (Promega) is determined according to standard procedures using a luminescent signal readout on a plate reader. Each experiment/condition is performed in triplicate. Caspase activity is analyzed as percentage effect normalized to the cisplatin alone and vehicle treated cells.
An in vitro study was performed to determine the effects of compounds of Formula (I), Formula (Ia), Formula (Ib), Formula (II), or Formula (III), or a pharmaceutically acceptable salt thereof, on Acute Kidney Injury in MDCK cells.
MDCK cells (MDCK (NBL-2) ATCC® CCL-34™) were cultured in base medium ATCC-formulated Eagle's Minimum Essential Medium, Catalog No. 30-2003 with fetal bovine serum (FBS) to a final concentration of 10%. 10,000 cells were plated into 96 wells and 24 hours after cell plating the medium was changed with fresh medium supplemented with 1% FBS. Cisplatin (50 μM for 16 hrs) was then used to induce cell injury. Different concentrations of Compound 18 (in 1% DMSO) were added in combination with cisplatin (FIG. 1) or 1 hour prior adding cisplatin (FIG. 2).
Caspase 3/7 activity (Promega) was determined according to standard procedures using a luminescent signal readout on a Victor V plate reader (PerkinElmer). Each experiment/condition was performed in triplicate.
Caspase activity was analyzed as percentage effect normalized to the cisplatin alone (100%) and vehicle treated cells as 0% of caspase activity. Data were analyzed by GraphPad Software. One-way analysis of variance (Dunnett's Multiple Comparison test) was used for statistical analyses.

[11] = system: primary mouse hepatocytes; test: RT-qPCR analysis of SIRT1-regulated genes in primary mouse hepatocytes; format: cell-based; settings: 24 hrs, 5 nM-500 nM range
Description: as §3, §4, §5

[12] = system: murine primary hepatocytes; test: NAD+ content in murine primary hepatocytes (HPLC, mass-spectrometry); format: cell-based, mouse; settings: 5 nM, 10 nM and 50 nM for 24 hours

N#Cc1c(-c2cccs2)nc(SCc2cccc(C(=O)O)c2)[nH]c1=O [Compound 4]
concentration at which ACMSD-1 enzyme is inhibited (NAD+ content, FIG. 1) [1]: ≤ 0.5 µM | Cytotoxicity Hep-G2 [2]: Not Toxic | Cytotoxicity AML-12 [3]: Not Toxic

N#Cc1c(-c2ccc(Cl)cc2)nc(SCc2ccc(C(=O)O)cc2)[nH]c1=O [Compound 8]
Cytotoxicity Hep-G2 [2]: Not Toxic | Cytotoxicity AML-12 [3]: Not Toxic

N#Cc1c(-c2ccccc2)nc(SCc2cccc(C(=O)O)c2)[nH]c1=O [Compound 1]
Sod2 mRNA levels [4]: increased in a dose-dependent manner | FoxO1 phosphorylation at Ser256 [5]: decrease | Cytotoxicity Hep-G2 [2]: Not Toxic | ACMSD-1 activity in over-expression cell-based assay [6]: inhibited ACMSD-1 activity, in a dose dependent manner | Cytotoxicity AML-12 [3]: Not Toxic | SOD2 activity [7]: induced in a dose-dependent manner | Sod2 mRNA levels [8]: increased in a dose-dependent manner | SOD2 activity [9]: induced in a dose-dependent manner

N#Cc1c(-c2nccs2)nc(SCc2cccc(C(=O)O)c2)[nH]c1=O [Compound 5]
Cytotoxicity Hep-G2 [2]: Not Toxic | Cytotoxicity AML-12 [3]: Not Toxic

N#Cc1c(-c2cccs2)nc(SCc2cccc(CC(=O)O)c2)[nH]c1=O [Compound 18]
EC50 ([10]; 1 h, added one hour prior to cisplatin, 1 μM to 125 μM): 30 µM | EC50 ([10]; added in combination with cisplatin, 0.01 μM to 100 μM): 70 µM | activity of caspase 3/7 induced by cisplatin ([10]; MDCK cells, cisplatin 50 μM for 16 hrs): decreases, in significant manner

N#Cc1c(-c2cccs2)nc(SCc2cccc(-c3nn[nH]n3)c2)[nH]c1=O [Compound 17]
FoxO1 phosphorylation at Ser256 [5]: decrease | Cytotoxicity Hep-G2 [2]: Not Toxic | Cytotoxicity AML-12 [3]: Not Toxic | dose at which effect on SOD2 activity reached a maximum ([7]; primary hepatocytes): about 50 nM | SOD2 activity [7]: induced in a dose-dependent manner | Pgc1a mRNA expression level [11]: dose-dependent increase | Sod2 (MnSOD) mRNA expression level [11]: dose-dependent increase | SOD2 activity [9]: induced in a dose-dependent manner | intra-cellular NAD+ levels [12]: significant and dose-dependent increase; also recorded: increase in NAD^+ levels

O=C(O)c1cccc(CSc2nc(-c3ccccc3)c(Br)c(=O)[nH]2)c1 [Compound 11]
Cytotoxicity Hep-G2 [2]: Not Toxic | Cytotoxicity AML-12 [3]: Not Toxic

N#Cc1c(-c2cccs2)nc(SCc2cccc(-c3noc(=O)[nH]3)c2)[nH]c1=O [Compound 19]
Cytotoxicity Hep-G2 [2]: Not Toxic | Cytotoxicity AML-12 [3]: Not Toxic

From patent US10513499B2, “Inhibitors of alpha-amino-beta-carboxymuconic acid semialdehyde decarboxylase” (TES Pharma S.r.l., priority 2014, dated 2019)
